Measured values as given in PubChem BioAssay AID2060503 (Molecular Pharmacology Branch, DTP, NCI, 2025).

System: 817829-284-R-J1-PDC complex spheroids, viability
Assay: Anticancer human tumor 817829-284-R-J1-PDC patient-derived colon adenocarcinoma cell line growth inhibition [GQUAD]
Settings: for IC50: curve of first compound; for viability, T/C: stronger effect = lower value
Outline: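 Tumor cells were grown as complex spheroids with HUVEC endothelial cells and mesenchymal stem cells as stroma. G-quadruplex stabilizers were combined with targeted agents over half-log dilutions from near the clinical Cmax, or from 10 microM.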

[1] = second compound 0.0316 µM, first compound 0.0316 µM
[2] = second compound 0.0316 µM, first compound 0.1 µM
[3] = second compound 0.0316 µM, first compound 0.316 µM
[4] = second compound 0.0316 µM, first compound 1 µM
[5] = second compound 0.0316 µM, first compound 3.16 µM
[6] = second compound 0.0316 µM, first compound 10 µM
[7] = second compound 0.1 µM, first compound 0.0316 µM
[8] = second compound 0.1 µM, first compound 0.1 µM
[9] = second compound 0.1 µM, first compound 0.316 µM
[10] = second compound 0.1 µM, first compound 1 µM
[11] = second compound 0.1 µM, first compound 3.16 µM
[12] = second compound 0.1 µM, first compound 10 µM
[13] = second compound 0.316 µM, first compound 0.0316 µM
[14] = second compound 0.316 µM, first compound 0.1 µM
[15] = second compound 0.316 µM, first compound 0.316 µM
[16] = second compound 0.316 µM, first compound 1 µM
[17] = second compound 0.316 µM, first compound 3.16 µM
[18] = second compound 0.316 µM, first compound 10 µM
[19] = second compound 1 µM, first compound 0.0316 µM
[20] = second compound 1 µM, first compound 0.1 µM
[21] = second compound 1 µM, first compound 0.316 µM
[22] = second compound 1 µM, first compound 1 µM
[23] = second compound 1 µM, first compound 3.16 µM
[24] = second compound 1 µM, first compound 10 µM
[25] = second compound 3.16 µM, first compound 0.0316 µM
[26] = second compound 3.16 µM, first compound 0.1 µM
[27] = second compound 3.16 µM, first compound 0.316 µM
[28] = second compound 3.16 µM, first compound 1 µM
[29] = second compound 3.16 µM, first compound 3.16 µM
[30] = second compound 3.16 µM, first compound 10 µM
[31] = second compound 10 µM, first compound 0.0316 µM
[32] = second compound 10 µM, first compound 0.1 µM
[33] = second compound 10 µM, first compound 0.316 µM
[34] = second compound 10 µM, first compound 1 µM
[35] = second compound 10 µM, first compound 3.16 µM
[36] = second compound 10 µM, first compound 10 µM
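Also: spheroids exposed to agents for 7 days before readout.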
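For viability, T/C in this document: percent viability relative to DMSO vehicle control taken as 100%.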

## CC1COCCN1c1cc(-c2ccnn2C)c2ccnc(-c3ccn[nH]3)c2n1 (centres undefined) + CN(C)c1ccc(Nc2c3ccc(NC(=O)CCN4CCCC4)cc3nc3cc(NC(=O)CCN4CCCC4)ccc23)cc1
Second compound 0.0316 µM
  IC50: < 31.6 nM
Second compound 0.1 µM
  IC50: < 31.6 nM
Second compound 0.316 µM
  IC50: < 31.6 nM
Second compound 1 µM
  IC50: < 31.6 nM
Second compound 3.16 µM
  IC50: < 31.6 nM
Second compound 10 µM
  IC50: < 31.6 nM
[1]
  viability, T/C: 49.1%
[2]
  viability, T/C: 21.1%
[3]
  viability, T/C: 10.9%
[4]
  viability, T/C: 7.46%
[5]
  viability, T/C: 6.76%
[6]
  viability, T/C: 6.4%
[7]
  viability, T/C: 43.7%
[8]
  viability, T/C: 19.4%
[9]
  viability, T/C: 9.94%
[10]
  viability, T/C: 7.09%
[11]
  viability, T/C: 6.81%
[12]
  viability, T/C: 5.85%
[13]
  viability, T/C: 41.3%
[14]
  viability, T/C: 20.7%
[15]
  viability, T/C: 9.46%
[16]
  viability, T/C: 9.2%
[17]
  viability, T/C: 6.26%
[18]
  viability, T/C: 5.57%
[19]
  viability, T/C: 45.9%
[20]
  viability, T/C: 19.1%
[21]
  viability, T/C: 9.31%
[22]
  viability, T/C: 8.05%
[23]
  viability, T/C: 7.11%
[24]
  viability, T/C: 5.77%
[25]
  viability, T/C: 36.6%
[26]
  viability, T/C: 16.5%
[27]
  viability, T/C: 9.69%
[28]
  viability, T/C: 9.19%
[29]
  viability, T/C: 7.57%
[30]
  viability, T/C: 5.75%
[31]
  viability, T/C: 25%
[32]
  viability, T/C: 16.9%
[33]
  viability, T/C: 8.98%
[34]
  viability, T/C: 6.93%
[35]
  viability, T/C: 5.14%
[36]
  viability, T/C: 3.02%

## Nc1ccn(C2OC(CO)C(O)C2(F)F)c(=O)n1 (centres undefined) + Cc1cnc(CNC(=O)c2c(=O)c3ccc(N4CCCN(C)CC4)nc3n3c2sc2ccccc23)cn1
Second compound 0.0316 µM
  IC50: < 31.6 nM
Second compound 0.1 µM
  IC50: < 31.6 nM
Second compound 0.316 µM
  IC50: < 31.6 nM
Second compound 1 µM
  IC50: < 31.6 nM
Second compound 3.16 µM
  IC50: < 31.6 nM
Second compound 10 µM
  IC50: < 31.6 nM
[1]
  viability, T/C: 17.2%
[2]
  viability, T/C: 7.44%
[3]
  viability, T/C: 7.25%
[4]
  viability, T/C: 5.51%
[5]
  viability, T/C: 5.09%
[6]
  viability, T/C: 3.11%
[7]
  viability, T/C: 18%
[8]
  viability, T/C: 10.7%
[9]
  viability, T/C: 5.49%
[10]
  viability, T/C: 7.04%
[11]
  viability, T/C: 6.51%
[12]
  viability, T/C: 4.03%
[13]
  viability, T/C: 15.3%
[14]
  viability, T/C: 11.4%
[15]
  viability, T/C: 8.25%
[16]
  viability, T/C: 7.77%
[17]
  viability, T/C: 4.4%
[18]
  viability, T/C: 3.63%
[19]
  viability, T/C: 15.6%
[20]
  viability, T/C: 10.3%
[21]
  viability, T/C: 7.69%
[22]
  viability, T/C: 5.93%
[23]
  viability, T/C: 4.41%
[24]
  viability, T/C: 2.57%
[25]
  viability, T/C: 15%
[26]
  viability, T/C: 8.99%
[27]
  viability, T/C: 5.76%
[28]
  viability, T/C: 5.67%
[29]
  viability, T/C: 1%
[30]
  viability, T/C: 0.14%
[31]
  viability, T/C: 0.09%
[32]
  viability, T/C: 0.13%
[33]
  viability, T/C: 0.12%
[34]
  viability, T/C: 0.12%
[35]
  viability, T/C: 0.14%
[36]
  viability, T/C: 0.15%
